# Measured values taken from patent publication US12173322B2, “Genome-edited induced pluripotent stem cells, and cells derived therefrom, and uses thereof” (priority 2020, dated 2024).
# Where two headings read alike, the source gives them in different places.
# What was measured:
# Format in all cases: cell-based
# hKCNQ1 /mink = biological target: T1, hKCNQ1 /mink (Homo sapiens, UniProt P51787); experiment: Patch clamp electrophysiology (QPatch), hKCNQ1/mink
# T1 construct: Eurofins
# hKir2.1 = biological target: T2, hKir2.1 (Homo sapiens, UniProt P63252); experiment: Patch clamp electrophysiology (QPatch CiPA), hKir2.1; settings: for IC50: Antagonist, read-out: Estimated IC50
# T2 construct: Eurofins
# T2 sequence (P63252 1-427): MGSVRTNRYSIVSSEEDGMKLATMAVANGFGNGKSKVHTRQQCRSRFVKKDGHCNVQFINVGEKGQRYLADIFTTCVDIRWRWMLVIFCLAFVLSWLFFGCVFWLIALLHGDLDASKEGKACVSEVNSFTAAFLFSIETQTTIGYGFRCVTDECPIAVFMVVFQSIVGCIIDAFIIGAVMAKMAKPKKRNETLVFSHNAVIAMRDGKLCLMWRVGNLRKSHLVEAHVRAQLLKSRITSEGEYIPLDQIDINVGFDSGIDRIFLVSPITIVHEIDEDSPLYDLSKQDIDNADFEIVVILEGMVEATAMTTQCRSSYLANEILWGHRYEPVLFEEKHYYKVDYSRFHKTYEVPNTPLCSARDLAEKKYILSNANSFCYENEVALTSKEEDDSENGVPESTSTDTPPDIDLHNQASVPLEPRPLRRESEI
# Procedure: Replated hiPSC-CMs were loaded with a fluorescent calcium dye and calcium transients were recorded before and after peptide addition.
# hKv4.3/hKChIP2 = biological target: T3, hKv4.3/hKChIP2 (Homo sapiens, UniProt Q9UK17); experiment: Patch clamp electrophysiology (QPatch CiPA), hKv4.3/hKChIP2; settings: for IC50: Antagonist, read-out: Estimated IC50
# T3 construct: Eurofins
# T3 sequence (Q9UK17 1-655): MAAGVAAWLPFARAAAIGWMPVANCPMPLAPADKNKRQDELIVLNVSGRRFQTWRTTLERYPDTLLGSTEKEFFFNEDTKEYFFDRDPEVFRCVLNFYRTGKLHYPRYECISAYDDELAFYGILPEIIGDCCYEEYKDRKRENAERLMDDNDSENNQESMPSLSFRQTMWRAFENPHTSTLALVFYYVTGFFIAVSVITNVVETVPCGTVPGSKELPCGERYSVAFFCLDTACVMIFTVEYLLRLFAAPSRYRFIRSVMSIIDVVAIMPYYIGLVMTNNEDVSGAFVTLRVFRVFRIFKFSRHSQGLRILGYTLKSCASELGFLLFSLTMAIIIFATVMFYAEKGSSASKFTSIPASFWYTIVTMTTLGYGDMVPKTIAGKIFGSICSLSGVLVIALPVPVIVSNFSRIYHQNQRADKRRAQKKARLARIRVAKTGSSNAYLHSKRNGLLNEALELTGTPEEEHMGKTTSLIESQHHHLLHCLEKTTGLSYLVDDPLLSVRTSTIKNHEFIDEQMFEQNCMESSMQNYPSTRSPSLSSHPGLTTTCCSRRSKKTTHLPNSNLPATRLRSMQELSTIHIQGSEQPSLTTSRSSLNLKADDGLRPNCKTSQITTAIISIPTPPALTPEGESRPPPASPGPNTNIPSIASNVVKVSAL
# T3 sequence (Q9NS61 1-270 partner): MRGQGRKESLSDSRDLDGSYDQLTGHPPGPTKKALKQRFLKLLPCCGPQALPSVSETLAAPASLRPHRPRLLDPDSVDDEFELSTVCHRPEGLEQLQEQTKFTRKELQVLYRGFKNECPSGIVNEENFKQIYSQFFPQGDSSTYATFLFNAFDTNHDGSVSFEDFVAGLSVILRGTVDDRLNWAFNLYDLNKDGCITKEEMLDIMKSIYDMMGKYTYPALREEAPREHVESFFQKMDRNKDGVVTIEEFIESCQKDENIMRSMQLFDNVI
# hCav1.2 = biological target: T4, hCav1.2 (Homo sapiens, UniProt Q13936); experiment: Patch clamp electrophysiology (QPatch CiPA), hCav1.2
# T4 construct: Eurofins
# hNav1.5 = biological target: T5, hNav1.5 (Homo sapiens, UniProt Q14524); experiment: Patch clamp electrophysiology (QPatch CiPA), hNav1.5
# T5 construct: Eurofins
# [1] = End, read-out: % inhibition mean
# [2] = Peak, read-out: % inhibition mean
# [3] = Peak, read-out: % inhibition n1
# [4] = Peak, read-out: % inhibition n2
# T1 sequence (P51787 whole entry): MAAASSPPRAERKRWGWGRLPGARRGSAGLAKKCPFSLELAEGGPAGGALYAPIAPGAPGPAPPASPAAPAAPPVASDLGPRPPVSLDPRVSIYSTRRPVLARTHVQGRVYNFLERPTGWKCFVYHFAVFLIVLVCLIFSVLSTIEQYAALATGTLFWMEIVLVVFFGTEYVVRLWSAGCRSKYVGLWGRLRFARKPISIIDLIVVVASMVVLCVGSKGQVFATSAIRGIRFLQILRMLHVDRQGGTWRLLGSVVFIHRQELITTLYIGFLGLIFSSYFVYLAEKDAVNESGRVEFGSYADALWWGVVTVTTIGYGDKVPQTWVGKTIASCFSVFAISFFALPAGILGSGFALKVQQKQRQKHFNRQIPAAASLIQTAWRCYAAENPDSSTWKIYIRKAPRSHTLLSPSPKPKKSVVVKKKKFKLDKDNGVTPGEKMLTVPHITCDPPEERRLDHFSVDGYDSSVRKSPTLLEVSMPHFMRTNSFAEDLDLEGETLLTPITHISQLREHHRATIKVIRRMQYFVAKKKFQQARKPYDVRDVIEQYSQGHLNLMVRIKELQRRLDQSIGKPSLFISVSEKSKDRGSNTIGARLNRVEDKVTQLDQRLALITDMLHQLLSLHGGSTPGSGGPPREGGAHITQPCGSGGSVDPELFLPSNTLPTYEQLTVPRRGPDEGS
# T5 sequence (Q14524 whole entry): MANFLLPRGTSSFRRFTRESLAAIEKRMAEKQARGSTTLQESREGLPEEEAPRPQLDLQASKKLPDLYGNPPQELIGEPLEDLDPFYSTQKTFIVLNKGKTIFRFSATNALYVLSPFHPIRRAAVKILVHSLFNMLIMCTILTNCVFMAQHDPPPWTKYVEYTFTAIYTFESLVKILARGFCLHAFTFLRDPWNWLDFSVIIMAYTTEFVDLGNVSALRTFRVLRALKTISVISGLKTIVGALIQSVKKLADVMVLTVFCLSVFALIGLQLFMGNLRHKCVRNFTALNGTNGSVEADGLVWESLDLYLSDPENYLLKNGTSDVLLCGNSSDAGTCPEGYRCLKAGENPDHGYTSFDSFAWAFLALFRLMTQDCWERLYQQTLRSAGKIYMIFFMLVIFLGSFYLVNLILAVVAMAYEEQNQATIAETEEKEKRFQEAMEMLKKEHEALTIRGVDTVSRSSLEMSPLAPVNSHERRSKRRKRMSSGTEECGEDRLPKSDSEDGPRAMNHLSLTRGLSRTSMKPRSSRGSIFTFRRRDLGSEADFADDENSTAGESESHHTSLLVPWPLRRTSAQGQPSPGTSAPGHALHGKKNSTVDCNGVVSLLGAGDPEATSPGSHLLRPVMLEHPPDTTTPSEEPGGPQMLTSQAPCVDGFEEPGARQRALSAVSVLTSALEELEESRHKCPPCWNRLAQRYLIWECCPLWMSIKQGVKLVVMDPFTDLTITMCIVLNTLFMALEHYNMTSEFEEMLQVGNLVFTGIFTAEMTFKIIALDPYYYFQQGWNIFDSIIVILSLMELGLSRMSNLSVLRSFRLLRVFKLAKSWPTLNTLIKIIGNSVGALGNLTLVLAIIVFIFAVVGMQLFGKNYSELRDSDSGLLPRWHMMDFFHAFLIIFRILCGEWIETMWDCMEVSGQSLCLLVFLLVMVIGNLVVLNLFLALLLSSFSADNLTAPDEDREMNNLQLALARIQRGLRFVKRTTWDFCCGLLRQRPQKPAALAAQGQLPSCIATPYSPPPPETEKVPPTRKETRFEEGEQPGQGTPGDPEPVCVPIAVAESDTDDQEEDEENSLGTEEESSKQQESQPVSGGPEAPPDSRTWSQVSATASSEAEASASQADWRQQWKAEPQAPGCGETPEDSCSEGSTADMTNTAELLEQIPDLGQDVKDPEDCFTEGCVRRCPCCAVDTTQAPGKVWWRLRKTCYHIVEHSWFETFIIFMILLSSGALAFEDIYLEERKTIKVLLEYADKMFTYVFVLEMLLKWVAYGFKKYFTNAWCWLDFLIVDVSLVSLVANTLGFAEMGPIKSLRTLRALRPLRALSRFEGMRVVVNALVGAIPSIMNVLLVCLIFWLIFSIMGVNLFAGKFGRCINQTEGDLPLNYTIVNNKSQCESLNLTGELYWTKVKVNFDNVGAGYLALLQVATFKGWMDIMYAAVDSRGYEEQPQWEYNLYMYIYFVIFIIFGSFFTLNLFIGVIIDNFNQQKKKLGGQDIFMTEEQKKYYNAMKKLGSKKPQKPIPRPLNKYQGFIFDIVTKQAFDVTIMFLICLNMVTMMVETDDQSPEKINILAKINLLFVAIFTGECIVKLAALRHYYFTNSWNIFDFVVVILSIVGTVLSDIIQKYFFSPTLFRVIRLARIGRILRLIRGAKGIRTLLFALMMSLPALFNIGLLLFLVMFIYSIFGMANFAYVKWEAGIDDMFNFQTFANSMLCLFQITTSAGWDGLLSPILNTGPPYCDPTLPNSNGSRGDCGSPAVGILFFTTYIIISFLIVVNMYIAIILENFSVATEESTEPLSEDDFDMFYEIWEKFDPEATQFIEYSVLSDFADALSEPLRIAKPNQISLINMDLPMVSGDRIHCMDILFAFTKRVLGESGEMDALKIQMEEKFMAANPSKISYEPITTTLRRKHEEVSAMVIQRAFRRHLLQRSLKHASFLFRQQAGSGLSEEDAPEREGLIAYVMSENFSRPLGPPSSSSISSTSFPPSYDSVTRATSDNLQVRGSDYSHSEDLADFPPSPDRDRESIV
structure (smiles),measurement,setting,value
CCS(=O)(=O)N(C)[C@H]1c2cc(C#N)ccc2OC(C)(C)[C@@H]1O (racemic) [Chromanol 293B],% inhibition mean,hKCNQ1 /mink; 0.3 μM,4.24%
same,% inhibition n1,hKCNQ1 /mink; 0.3 μM,1.35%
same,% inhibition n2,hKCNQ1 /mink; 0.3 μM,7.13%
same,% inhibition mean,hKCNQ1 /mink; 1 µM,12.25%
same,% inhibition n1,hKCNQ1 /mink; 1 µM,9.45%
same,% inhibition n2,hKCNQ1 /mink; 1 µM,15.04%
same,% inhibition mean,hKCNQ1 /mink; 3 μM,22.85%
same,% inhibition n1,hKCNQ1 /mink; 3 μM,21.34%
same,% inhibition n2,hKCNQ1 /mink; 3 μM,24.36%
same,% inhibition mean,hKCNQ1 /mink; 10 µM,40.28%
same,% inhibition n1,hKCNQ1 /mink; 10 µM,39.37%
same,% inhibition n2,hKCNQ1 /mink; 10 µM,41.20%
same,% inhibition mean,hKCNQ1 /mink; 30 μM,73.92%
same,% inhibition n1,hKCNQ1 /mink; 30 μM,74.46%
same,% inhibition n2,hKCNQ1 /mink; 30 μM,73.39%
same,% inhibition mean,hKCNQ1 /mink; 100 µM,95.80%
same,% inhibition n1,hKCNQ1 /mink; 100 µM,96.45%
same,% inhibition n2,hKCNQ1 /mink; 100 µM,95.16%
same,IC50,hKCNQ1 /mink; read-out: Estimated IC50,11.5 µM
"[Ba+2].[Cl-].[Cl-] [Barium, Barium Chloride]",IC50,hKir2.1; End,3.6 µM
same,IC50,hKir2.1; Peak,62.3 µM
same,% inhibition mean,"hKir2.1; End, 0.3 μM",7.01%
same,% inhibition n1,"hKir2.1; End, 0.3 μM",6.49%
same,% inhibition n2,"hKir2.1; End, 0.3 μM",7.53%
same,% inhibition mean,"hKir2.1; End, 1 μM",18.29%
same,% inhibition n1,"hKir2.1; End, 1 μM",19.93%
same,% inhibition n2,"hKir2.1; End, 1 μM",16.65%
same,% inhibition mean,"hKir2.1; End, 3 μM",41.38%
same,% inhibition n1,"hKir2.1; End, 3 μM",39.87%
same,% inhibition n2,"hKir2.1; End, 3 μM",42.88%
same,% inhibition mean,"hKir2.1; End, 10 μM",80.72%
same,% inhibition n1,"hKir2.1; End, 10 μM",79.79%
same,% inhibition n2,"hKir2.1; End, 10 μM",81.66%
same,% inhibition mean,"hKir2.1; End, 30 μM",93.28%
same,% inhibition n1,"hKir2.1; End, 30 μM",93.64%
same,% inhibition n2,"hKir2.1; End, 30 μM",92.93%
same,% inhibition mean,"hKir2.1; End, 100 μM",98.46%
same,% inhibition n1,"hKir2.1; End, 100 μM",98.46%
same,% inhibition n2,"hKir2.1; End, 100 μM",98.47%
same,% inhibition mean,"hKir2.1; Peak, 0.3 μM",2.37%
same,% inhibition n1,"hKir2.1; Peak, 0.3 μM",1.78%
same,% inhibition n2,"hKir2.1; Peak, 0.3 μM",2.96%
same,% inhibition mean,"hKir2.1; Peak, 1 μM",6.45%
same,% inhibition n1,"hKir2.1; Peak, 1 μM",7.99%
same,% inhibition n2,"hKir2.1; Peak, 1 μM",4.90%
same,% inhibition mean,"hKir2.1; Peak, 3 μM",12.57%
same,% inhibition n1,"hKir2.1; Peak, 3 μM",14.88%
same,% inhibition n2,"hKir2.1; Peak, 3 μM",10.25%
same,% inhibition mean,"hKir2.1; Peak, 10 μM",13.31%
same,% inhibition n1,"hKir2.1; Peak, 10 μM",16.68%
same,% inhibition n2,"hKir2.1; Peak, 10 μM",9.94%
same,% inhibition mean,"hKir2.1; Peak, 30 μM",31.99%
same,% inhibition n1,"hKir2.1; Peak, 30 μM",38.78%
same,% inhibition n2,"hKir2.1; Peak, 30 μM",25.19%
same,% inhibition mean,"hKir2.1; Peak, 100 μM",62.64%
same,% inhibition n1,"hKir2.1; Peak, 100 μM",63.60%
same,% inhibition n2,"hKir2.1; Peak, 100 μM",61.68%
O=C(NCC1CCCCN1)c1cc(OCC(F)(F)F)ccc1OCC(F)(F)F (centres unmarked) [Flecainide],IC50,hKv4.3/hKChIP2; End,10 µM
same,IC50,hKv4.3/hKChIP2; Peak,22.5 µM
same,inhibition at 0.03 µM,hKv4.3/hKChIP2; [1],6.93%
same,inhibition at 0.03 µM,"hKv4.3/hKChIP2; End, read-out: % inhibition n1",5.29%
same,inhibition at 0.03 µM,"hKv4.3/hKChIP2; End, read-out: % inhibition n2",8.57%
same,inhibition at 0.3 µM,hKv4.3/hKChIP2; [1],7.17%
same,inhibition at 0.3 µM,"hKv4.3/hKChIP2; End, read-out: % inhibition n1",2.84%
same,inhibition at 0.3 µM,"hKv4.3/hKChIP2; End, read-out: % inhibition n2",11.5%
same,inhibition at 3 µM,hKv4.3/hKChIP2; [1],26.8%
same,inhibition at 3 µM,"hKv4.3/hKChIP2; End, read-out: % inhibition n1",25.6%
same,inhibition at 3 µM,"hKv4.3/hKChIP2; End, read-out: % inhibition n2",27.9%
same,inhibition at 30 µM,hKv4.3/hKChIP2; [1],71.8%
same,inhibition at 30 µM,"hKv4.3/hKChIP2; End, read-out: % inhibition n1",69.2%
same,inhibition at 30 µM,"hKv4.3/hKChIP2; End, read-out: % inhibition n2",74.4%
same,inhibition at 300 µM,hKv4.3/hKChIP2; [1],90.5%
same,inhibition at 300 µM,"hKv4.3/hKChIP2; End, read-out: % inhibition n1",90%
same,inhibition at 300 µM,"hKv4.3/hKChIP2; End, read-out: % inhibition n2",91%
same,inhibition at 0.03 µM,hKv4.3/hKChIP2; [2],9.2%
same,inhibition at 0.03 µM,hKv4.3/hKChIP2; [3],7.41%
same,inhibition at 0.03 µM,hKv4.3/hKChIP2; [4],11%
same,inhibition at 0.3 µM,hKv4.3/hKChIP2; [2],8.4%
same,inhibition at 0.3 µM,hKv4.3/hKChIP2; [3],4.05%
same,inhibition at 0.3 µM,hKv4.3/hKChIP2; [4],12.8%
same,inhibition at 3 µM,hKv4.3/hKChIP2; [2],12.6%
same,inhibition at 3 µM,hKv4.3/hKChIP2; [3],10.6%
same,inhibition at 3 µM,hKv4.3/hKChIP2; [4],14.5%
same,inhibition at 30 µM,hKv4.3/hKChIP2; [2],55.2%
same,inhibition at 30 µM,hKv4.3/hKChIP2; [3],57.5%
same,inhibition at 30 µM,hKv4.3/hKChIP2; [4],53%
same,inhibition at 300 µM,hKv4.3/hKChIP2; [2],97.4%
same,inhibition at 300 µM,hKv4.3/hKChIP2; [3],97.4%
same,inhibition at 300 µM,hKv4.3/hKChIP2; [4],97.3%
COC(=O)C1=C(C)NC(C)=C(C(=O)OC)C1c1ccccc1[N+](=O)[O-] [Nifedipine],inhibition at 0.001 µM,hCav1.2; read-out: % inhibition mean,15.1%
same,inhibition at 0.01 µM,hCav1.2; read-out: % inhibition mean,34.8%
same,inhibition at 0.1 µM,hCav1.2; read-out: % inhibition mean,55.7%
same,inhibition at 1 µM,hCav1.2; read-out: % inhibition mean,61%
same,inhibition at 10 µM,hCav1.2; read-out: % inhibition mean,83.8%
same,inhibition at 100 µM,hCav1.2; read-out: % inhibition mean,94.8%
same,inhibition at 0.001 µM,hCav1.2; read-out: % inhibition n1,21.6%
same,inhibition at 0.01 µM,hCav1.2; read-out: % inhibition n1,38.2%
same,inhibition at 0.1 µM,hCav1.2; read-out: % inhibition n1,53.1%
same,inhibition at 1 µM,hCav1.2; read-out: % inhibition n1,56.8%
same,inhibition at 10 µM,hCav1.2; read-out: % inhibition n1,81.4%
same,inhibition at 100 µM,hCav1.2; read-out: % inhibition n1,95.2%
same,inhibition at 0.001 µM,hCav1.2; read-out: % inhibition n2,8.54%
same,inhibition at 0.01 µM,hCav1.2; read-out: % inhibition n2,31.5%
same,inhibition at 0.1 µM,hCav1.2; read-out: % inhibition n2,58.2%
same,inhibition at 1 µM,hCav1.2; read-out: % inhibition n2,65.2%
same,inhibition at 10 µM,hCav1.2; read-out: % inhibition n2,86.1%
same,inhibition at 100 µM,hCav1.2; read-out: % inhibition n2,94.5%
CCCCNc1ccc(C(=O)OCCN(C)C)cc1 [Tetracaine],inhibition at 0.03 µM,hNav1.5; read-out: % inhibition mean,6.44%
same,inhibition at 0.03 µM,hNav1.5; read-out: % inhibition n1,6.26%
same,inhibition at 0.03 µM,hNav1.5; read-out: % inhibition n2,6.62%
same,inhibition at 0.3 µM,hNav1.5; read-out: % inhibition mean,27.2%
same,inhibition at 0.3 µM,hNav1.5; read-out: % inhibition n1,28.8%
same,inhibition at 0.3 µM,hNav1.5; read-out: % inhibition n2,25.6%
same,inhibition at 3 µM,hNav1.5; read-out: % inhibition mean,71.3%
same,inhibition at 3 µM,hNav1.5; read-out: % inhibition n1,74.2%
same,inhibition at 3 µM,hNav1.5; read-out: % inhibition n2,68.5%
same,inhibition at 30 µM,hNav1.5; read-out: % inhibition mean,91.3%
same,inhibition at 30 µM,hNav1.5; read-out: % inhibition n1,93.8%
same,inhibition at 30 µM,hNav1.5; read-out: % inhibition n2,88.8%
same,inhibition at 300 µM,hNav1.5; read-out: % inhibition mean,95.9%
same,inhibition at 300 µM,hNav1.5; read-out: % inhibition n1,96.6%
same,inhibition at 300 µM,hNav1.5; read-out: % inhibition n2,95.2%
